Experimental data: US20090010998A1 (priority 2007, published 2009)

Experiments:
BALB/c or A/J mice = conditions: mouse, in vivo
backs of BALB/c mice = experiment: in vivo release test, FD&C dye impregnated dissolvable film on abraded skin; conditions: one hour after application; visually noted, estimated
Method: In one test, the backs of BALB/c mice were treated in multiple sites with an abrasive device (FAST™ device, see, for example, United States Publication No. 20040236269, incorporated herein by reference) where a 60 μm abrasive, was applied to the skin with 10-20 grams of force, oscillating at 840 Hz for 2 seconds over a 5×8 mm spot. FD&C dye impregnated dissolvable films were placed over each treatment site with a semi-occlusive covering (patch). The patch was left on for a period of 1-24 hours.

## C=O [formalin]
BALB/c or A/J mice
  effect of adjuvant/preservative on antibody titer: higher titer antibody response
  effect of adjuvant/preservative on efficiency of TCI: did not show a statistically significant difference

## FD&C No. 1 dye
Backs of BALB/c mice
  presence of dye on the mouse skin: > 75%

## alum
BALB/c or A/J mice
  effect of adjuvant/preservative on antibody titer: higher titer antibody response
